Data from ChEMBL document CHEMBL4421717, “Antagonists and agonists of bitter taste receptors and uses thereof” (2012).
Calls of active or inactive are those of the source. The calls are words filed in the database; no cut-off is given here.

Experiments:
Format in all cases: functional, cell-based
[1] = target: T1, Taste receptor type 2 member 3 (Homo sapiens) (UniProt Q9NYW6); test: Activity at recombinant human N-terminal rat ST3 receptor-fused TAS2R3 expressed in HEK293T cells co-expressing Galpha16gust44 assessed as effect on chloroquine-induced intracellular calcium level at 100 uM by FLIPR assay
T1 sequence (whole entry): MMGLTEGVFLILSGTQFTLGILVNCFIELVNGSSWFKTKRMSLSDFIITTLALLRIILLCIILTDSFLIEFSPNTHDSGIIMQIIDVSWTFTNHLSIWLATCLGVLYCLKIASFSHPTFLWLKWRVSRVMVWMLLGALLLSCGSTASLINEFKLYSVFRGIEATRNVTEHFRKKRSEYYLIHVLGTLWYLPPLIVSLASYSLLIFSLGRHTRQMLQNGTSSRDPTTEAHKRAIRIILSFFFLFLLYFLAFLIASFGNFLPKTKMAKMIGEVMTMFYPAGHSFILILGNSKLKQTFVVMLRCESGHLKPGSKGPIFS

[2] = target: T2, Taste receptor type 2 member 8 (Homo sapiens) (UniProt Q9NYW2); test: Activity at recombinant human N-terminal rat ST3 receptor-fused TAS2R8 expressed in HEK293T cells co-expressing Galpha16gust44 assessed as effect on chloramphenicol-induced intracellular calcium level at 100 uM by FLIPR assay
T2 sequence (whole entry): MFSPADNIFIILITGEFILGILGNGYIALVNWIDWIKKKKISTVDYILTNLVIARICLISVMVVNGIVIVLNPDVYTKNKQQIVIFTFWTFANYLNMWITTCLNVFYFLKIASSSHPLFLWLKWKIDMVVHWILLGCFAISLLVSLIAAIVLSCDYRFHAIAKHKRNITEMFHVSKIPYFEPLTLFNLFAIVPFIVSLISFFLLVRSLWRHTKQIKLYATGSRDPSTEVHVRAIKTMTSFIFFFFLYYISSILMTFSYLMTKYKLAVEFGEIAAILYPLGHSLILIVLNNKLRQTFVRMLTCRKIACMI

[3] = target: T3, Taste receptor type 2 member 9 (Homo sapiens) (UniProt Q9NYW1); test: Activity at recombinant human N-terminal rat ST3 receptor-fused TAS2R9 expressed in HEK293T cells co-expressing Galpha16gust44 assessed as effect on ofloxacin-induced intracellular calcium level at 100 uM by FLIPR assay
T3 sequence (whole entry): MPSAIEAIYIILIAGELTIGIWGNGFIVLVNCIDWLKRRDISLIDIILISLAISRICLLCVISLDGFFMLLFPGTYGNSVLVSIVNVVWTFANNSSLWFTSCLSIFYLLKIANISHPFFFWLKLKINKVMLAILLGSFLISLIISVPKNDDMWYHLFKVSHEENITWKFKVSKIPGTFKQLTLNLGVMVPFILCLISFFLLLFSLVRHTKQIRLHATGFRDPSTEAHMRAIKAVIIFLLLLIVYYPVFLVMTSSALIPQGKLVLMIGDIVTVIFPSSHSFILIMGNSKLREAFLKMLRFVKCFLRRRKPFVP

[4] = target: T4, Taste receptor type 2 member 14 (Homo sapiens) (UniProt Q9NYV8); test: Activity at recombinant human N-terminal rat ST3 receptor-fused TAS2R14 expressed in HEK293T cells co-expressing Galpha16gust44 assessed as effect on aristolochic acids-induced intracellular calcium level at 100 uM by FLIPR assay
T4 sequence (whole entry): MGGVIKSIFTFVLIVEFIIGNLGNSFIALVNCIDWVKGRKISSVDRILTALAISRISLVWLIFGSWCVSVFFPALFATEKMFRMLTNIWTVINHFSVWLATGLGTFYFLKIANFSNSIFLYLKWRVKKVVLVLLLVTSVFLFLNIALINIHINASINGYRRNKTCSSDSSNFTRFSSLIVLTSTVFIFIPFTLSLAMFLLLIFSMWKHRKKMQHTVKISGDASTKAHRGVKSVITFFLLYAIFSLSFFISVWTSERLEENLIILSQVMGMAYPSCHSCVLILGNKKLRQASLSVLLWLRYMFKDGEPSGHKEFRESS

[5] = target: T5, Taste receptor type 2 member 39 (Homo sapiens) (UniProt P59534); test: Activity at recombinant human N-terminal rat ST3 receptor-fused TAS2R39 expressed in HEK293T cells co-expressing Galpha16gust44 assessed as effect on epigallocatechin gallate-induced intracellular calcium level at 100 uM by FLIPR assay
T5 sequence (whole entry): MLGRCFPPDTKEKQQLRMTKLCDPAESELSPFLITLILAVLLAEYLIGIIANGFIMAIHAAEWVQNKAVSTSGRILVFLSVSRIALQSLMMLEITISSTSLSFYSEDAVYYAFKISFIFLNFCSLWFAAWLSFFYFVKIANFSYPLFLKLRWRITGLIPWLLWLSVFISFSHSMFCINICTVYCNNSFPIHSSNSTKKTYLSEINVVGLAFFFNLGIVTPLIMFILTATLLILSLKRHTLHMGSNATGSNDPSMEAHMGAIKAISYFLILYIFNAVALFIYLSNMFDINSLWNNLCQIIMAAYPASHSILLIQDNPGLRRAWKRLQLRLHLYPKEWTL

[6] = target: Taste receptor type 2 member 40 (Homo sapiens) (UniProt P59535); test: Antagonist activity at recombinant human N-terminal rat ST3 receptor-fused TAS2R40 expressed in HEK293T cells co-expressing Galpha16gust44 assessed as inhibition of cohumulone-induced intracellular calcium level at 100 uM by FLIPR assay
Taste receptor type 2 member 40 (Homo sapiens), sequence (P59535 whole entry, the tested form may be a part): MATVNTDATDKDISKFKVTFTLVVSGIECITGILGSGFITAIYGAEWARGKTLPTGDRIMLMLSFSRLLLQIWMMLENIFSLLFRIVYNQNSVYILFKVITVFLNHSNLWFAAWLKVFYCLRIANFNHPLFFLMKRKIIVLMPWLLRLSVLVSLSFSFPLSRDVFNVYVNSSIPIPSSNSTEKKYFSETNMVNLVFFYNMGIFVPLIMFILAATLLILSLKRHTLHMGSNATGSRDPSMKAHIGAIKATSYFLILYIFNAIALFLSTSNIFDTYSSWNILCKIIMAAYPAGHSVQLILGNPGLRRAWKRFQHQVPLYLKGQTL

[7] = target: T6, Taste receptor type 2 member 46 (Homo sapiens, UniProt P59540); test: Antagonist activity at recombinant human N-terminal rat ST3 receptor-fused TAS2R46 expressed in HEK293T cells co-expressing Galpha16gust44 assessed as inhibition of 3 uM strychnine-induced intracellular calcium level 100 uM by FLIPR assay
T6 sequence (P59540 whole entry): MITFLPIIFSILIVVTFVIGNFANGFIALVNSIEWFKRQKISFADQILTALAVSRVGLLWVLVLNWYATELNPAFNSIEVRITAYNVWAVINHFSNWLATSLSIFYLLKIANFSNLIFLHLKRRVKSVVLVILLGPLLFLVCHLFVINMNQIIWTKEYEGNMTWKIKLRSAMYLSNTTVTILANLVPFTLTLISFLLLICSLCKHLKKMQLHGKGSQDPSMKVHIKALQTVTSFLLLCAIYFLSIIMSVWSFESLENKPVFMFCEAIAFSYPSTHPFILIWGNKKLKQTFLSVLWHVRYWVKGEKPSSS

C/C1=C\C[C@H](O)[C@@H](C)C[C@H]2OC(=O)[C@@H](C)C2CC1 (some centres undefined)
Activity [1]: inactive
Activity [2]: inactive
Activity [3]: inactive
Activity [4]: inactive
Activity [5]: inactive
inhibition [6]: Active
IC50 [7]: 84.9 µM

C/C1=C\C[C@H](O)/C(C)=C/[C@H]2OC(=O)[C@@H](C)C2CC1 (some centres undefined)
Activity [1]: inactive
Activity [2]: inactive
Activity [3]: inactive
Activity [4]: inactive
Activity [5]: inactive
inhibition [6]: Active
IC50 [7]: 15.3 µM
